Here are results for 30 molecules from patent US20230312587A1, “PTERIDINONE COMPOUNDS AND USES THEREOF” (Vertex Pharmaceutical Incorporated, priority 2018, published 2023).

pIC50: −log10 of the molar value. Where only a bound is given, the exact number is not on record here.

The test deals with β-catenin-TCF-mediated reporter transcription activity in Colo 205 cells. The test can be described thus: Colo 205 reporter assay (TCF/LEF luciferase). The format is cell-based. The settings on record: Homo sapiens, COLO 205, 5 h, Colo 205 TCF/LEF luciferase reporter, five hours after addition of compound; read-out: TCF reporter Colo205 IC50. The procedure, abridged:
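Luciferase signal from a TCF/LEF-driven reporter, stably integrated in Colo 205 colon cancer cells, was measured 5 h after compound addition.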

As to `Cc1nc(NCc2cnn(C3CCN(c4ccc(F)cc4)CC3)c2)nc2c1NC(=O)[C@H](C)N2C` [Compound 130, (7S)-2-(((1-(1-(4-fluorophenyl)piperidin-4-yl)-1H-pyrazol-4-yl)methyl)amino)-4,7,8-trimethyl-7,8-dihydropteridin-6(5H)-one], the pIC50 was at most 5.30.

Take `Cc1nc(NCc2cnn(C[C@@H](O)c3ccc(F)cc3)c2)nc2c1NC(=O)[C@H](C)N2C` [Compound 131, (7S)-2-[[1-[(2S)-2-(4-fluorophenyl)-2-hydroxy-ethyl]pyrazol-4-yl]methylamino]-4,7,8-trimethyl-5,7-dihydropteridin-6-one]: the negative-log IC50 (pIC50) was 5.30 to 6.00.

Consider `Cc1nc(NCc2cnn(C[C@H](O)c3ccc(F)cc3)c2)nc2c1NC(=O)[C@H](C)N2C` [Compound 132, (7S)-2-[[1-[(2R)-2-(4-fluorophenyl)-2-hydroxy-ethyl]pyrazol-4-yl]methylamino]-4,7,8-trimethyl-5,7-dihydropteridin-6-one], for which the pIC50 was 6.00 to 6.52.

As to `Cc1nc(NCc2cnn(CCC3CCCC3)c2)nc2c1NC(=O)[C@H](C)N2C` [Compound 133, (7S)-2-(((1-(2-cyclopentylethyl)-1H-pyrazol-4-yl)methyl)amino)-4,7,8-trimethyl-7,8-dihydropteridin-6(5H)-one], the pIC50 is above 6.52.

`Cc1nc(NCc2cnn(CC3CC4CCC3C4)c2)nc2c1NC(=O)[C@H](C)N2C` (stereo partly drawn) [Compound 134, (7S)-2-(((1-(bicyclo[2.2.1]heptan-2-ylmethyl)-1H-pyrazol-4-yl)methyl)amino)-4,7,8-trimethyl-7,8-dihydropteridin-6(5H)-one]: the pIC50 is above 6.52.

As for `Cc1nc(NCc2cnn(C3CCC(c4ccc(F)cc4)C3)c2)nc2c1NC(=O)[C@H](C)N2C` (stereo partly drawn) [Compound 137, (7S)-2-(((1-(3-(4-fluorophenyl)cyclopentyl)-1H-pyrazol-4-yl)methyl)amino)-4,7,8-trimethyl-7,8-dihydropteridin-6(5H)-one], the negative logarithm of the IC50 (pIC50) is above 6.52.

Consider `Cc1nc(NCc2cnn(Cc3ccc(F)c(F)c3)c2)nc2c1NC(=O)[C@H](C)N2C` [Compound 140, (7S)-2-(((1-(3,4-difluorobenzyl)-1H-pyrazol-4-yl)methyl)amino)-4,7,8-trimethyl-7,8-dihydropteridin-6(5H)-one], for which the negative-log IC50 (pIC50) is above 6.52.

For the molecule `C[C@H]1C(=O)Nc2cnc(NCc3cnn(Cc4ccc(F)c(F)c4)c3)nc2N1C` [Compound 141, (7S)-2-(((1-(3,4-difluorobenzyl)-1H-pyrazol-4-yl)methyl)amino)-7,8-dimethyl-7,8-dihydropteridin-6(5H)-one], the pIC50 was above 6.52.

As for `COc1ccc(Cn2cc(CNc3nc(C)c4c(n3)N(C)[C@@H](C)C(=O)N4)cn2)cc1F` [Compound 146, (7S)-2-(((1-(3-fluoro-4-methoxybenzyl)-1H-pyrazol-4-yl)methyl)amino)-4,7,8-trimethyl-7,8-dihydropteridin-6(5H)-one], the pIC50 is above 6.52.

As for `C[C@H]1C(=O)Nc2cnc(NCc3cnn(Cc4ccc(C(F)(F)F)cc4)c3)nc2N1C` [Compound 147, (7S)-7,8-dimethyl-2-(((1-(4-(trifluoromethyl)benzyl)-1H-pyrazol-4-yl)methyl)amino)-7,8-dihydropteridin-6(5H)-one], the pIC50 is above 6.52.

For the molecule `COc1ccc(Cn2cc(CNc3ncc4c(n3)N(C)[C@@H](C)C(=O)N4)cn2)cc1F` [Compound 148, (7S)-2-(((1-(3-fluoro-4-methoxybenzyl)-1H-pyrazol-4-yl)methyl)amino)-7,8-dimethyl-7,8-dihydropteridin-6(5H)-one], the pIC50 was 6.00 to 6.52.

As to `Cc1nc(NCc2cnn([C@@H]3C[C@@H]3c3ccc(F)cc3)c2)nc2c1N(C)C(=O)[C@H](C)N2C` [Compound 152, (7S)-2-(((1-((1R,2R)-2-(4-fluorophenyl)cyclopropyl)-1H-pyrazol-4-yl)methyl)amino)-4,5,7,8-tetramethyl-7,8-dihydropteridin-6(5H)-one], the negative logarithm of the IC50 (pIC50) was above 6.52.

Regarding `Cc1nc(NCc2cnn([C@H]3C[C@H]3c3ccc(F)cc3)c2)nc2c1N(C)C(=O)[C@H](C)N2C` [Compound 153, (7S)-2-(((1-((1S,2S)-2-(4-fluorophenyl)cyclopropyl)-1H-pyrazol-4-yl)methyl)amino)-4,5,7,8-tetramethyl-7,8-dihydropteridin-6(5H)-one], the negative-log IC50 (pIC50) is above 6.52.

For `CCc1noc(C)c1Cn1cc(CNc2nc(C)c3c(n2)N(C)[C@@H](C)C(=O)N3)cn1` [Compound 158, (7S)-2-(((1-((3-ethyl-5-methylisoxazol-4-yl)methyl)-1H-pyrazol-4-yl)methyl)amino)-4,7,8-trimethyl-7,8-dihydropteridin-6(5H)-one], the negative logarithm of the IC50 (pIC50) was above 6.52.

As for `Cc1nc(NCc2cnn(Cc3cn(C)nc3C(F)(F)F)c2)nc2c1NC(=O)[C@H](C)N2C` [Compound 159, (7S)-4,7,8-trimethyl-2-(((1-((1-methyl-3-(trifluoromethyl)-1H-pyrazol-4-yl)methyl)-1H-pyrazol-4-yl)methyl)amino)-7,8-dihydropteridin-6(5H)-one], the pIC50 was 6.00 to 6.52.

On to `Cc1cnc(C(F)(F)F)nc1-n1cc(CNc2nc(C)c3c(n2)N(C)[C@@H](C)C(=O)N3)cn1` [Compound 161, (7S)-4,7,8-trimethyl-2-(((1-(5-methyl-2-(trifluoromethyl)pyrimidin-4-yl)-1H-pyrazol-4-yl)methyl)amino)-7,8-dihydropteridin-6(5H)-one], for which the negative-log IC50 (pIC50) was 6.00 to 6.52.

For `Cc1nc(NCc2cnn(Cc3ncc(F)cn3)c2)nc2c1NC(=O)[C@H](C)N2C` [Compound 162, (7S)-2-(((1-((5-fluoropyrimidin-2-yl)methyl)-1H-pyrazol-4-yl)methyl)amino)-4,7,8-trimethyl-7,8-dihydropteridin-6(5H)-one], the pIC50 is at most 5.30.

As for `C[C@H]1C(=O)Nc2cnc(NCc3cnn(Cc4ncc(F)cn4)c3)nc2N1C` [Compound 165, (7S)-2-(((1-((5-fluoropyrimidin-2-yl)methyl)-1H-pyrazol-4-yl)methyl)amino)-7,8-dimethyl-7,8-dihydropteridin-6(5H)-one], the negative logarithm of the IC50 (pIC50) is at most 5.30.

Regarding `Cc1ncc(Cn2cc(CNc3ncc4c(n3)N(C)[C@@H](C)C(=O)N4)cn2)cn1` [Compound 166, (7S)-7,8-dimethyl-2-(((1-((2-methylpyrimidin-5-yl)methyl)-1H-pyrazol-4-yl)methyl)amino)-7,8-dihydropteridin-6(5H)-one], the pIC50 was at most 5.30.

Regarding `Cc1cc(OC(C)(C)C)ncc1Cn1cc(CNc2nc(C)c3c(n2)N(C)[C@@H](C)C(=O)N3)cn1` [Compound 167, (7S)-2-(((1-((6-(tert-butoxy)-4-methylpyridin-3-yl)methyl)-1H-pyrazol-4-yl)methyl)amino)-4,7,8-trimethyl-7,8-dihydropteridin-6(5H)-one], the negative logarithm of the IC50 (pIC50) is above 6.52.

Consider `Cc1cc(OC(C)C)ncc1Cn1cc(CNc2nc(C)c3c(n2)N(C)[C@@H](C)C(=O)N3)cn1` [Compound 168, (7S)-2-(((1-((6-isopropoxy-4-methylpyridin-3-yl)methyl)-1H-pyrazol-4-yl)methyl)amino)-4,7,8-trimethyl-7,8-dihydropteridin-6(5H)-one], for which the negative logarithm of the IC50 (pIC50) was above 6.52.

As for `Cc1nc(NCc2ccc(OC3CCN(c4ccc(F)cc4)C3)nc2)nc2c1NC(=O)[C@H](C)N2C` (stereo partly drawn) [Compound 169, (7S)-2-(((6-((1-(4-fluorophenyl)pyrrolidin-3-yl)oxy)pyridin-3-yl)methyl)amino)-4,7,8-trimethyl-7,8-dihydropteridin-6(5H)-one], the pIC50 was above 6.52.

As for `Cc1nc(NCc2cnn([C@H]3CCN(c4ccc(F)cc4)C3)c2)nc2c1NC(=O)[C@H](C)N2C` [Compound 171, (7S)-2-(((1-((S)-1-(4-fluorophenyl)pyrrolidin-3-yl)-1H-pyrazol-4-yl)methyl)amino)-4,7,8-trimethyl-7,8-dihydropteridin-6(5H)-one], the pIC50 is above 6.52.

`Cc1nc(NCc2cnn([C@H](C)c3ccc(C(F)(F)F)nc3)c2)nc2c1NC(=O)[C@H](C)N2C` [Compound 175, (7S)-4,7,8-Trimethyl-2-(((1-((R)-1-(6-(trifluoromethyl)pyridin-3-yl)ethyl)-1H-pyrazol-4-yl)methyl)amino)-7,8-dihydropteridin-6(5H)-one]: the pIC50 was above 6.52.

On to `Cc1nc(NCc2cnn(Cc3ccc(C#N)nc3)c2)nc2c1NC(=O)[C@H](C)N2C` [Compound 176, (7S)-5-((4-(((4,7,8-trimethyl-6-oxo-5,6,7,8-tetrahydropteridin-2-yl)amino)methyl)-1H-pyrazol-1-yl)methyl)picolinonitrile], for which the pIC50 was 6.00 to 6.52.

Turning to `Cc1nc(NCc2cnn(Cc3ccc(C(F)(F)F)nc3)c2)nc2c1N(C)C(=O)[C@H](C)N2C` [Compound 177, (7S)-4,5,7,8-tetramethyl-2-(((1-((6-(trifluoromethyl)pyridin-3-yl)methyl)-1H-pyrazol-4-yl)methyl)amino)-7,8-dihydropteridin-6(5H)-one], the pIC50 was above 6.52.

On to `Cc1cc(Cn2cc(CNc3nc(C)c4c(n3)N(C)[C@@H](C)C(=O)N4)cn2)ccn1` [Compound 178, (7S)-4,7,8-trimethyl-2-(((1-((2-methylpyridin-4-yl)methyl)-1H-pyrazol-4-yl)methyl)amino)-7,8-dihydropteridin-6(5H)-one], for which the negative logarithm of the IC50 (pIC50) is 5.30 to 6.00.

With `Cc1nc(NCc2cnn(C3CCN(c4cc(F)cc(F)c4)CC3)c2)nc2c1NC(=O)[C@H](C)N2C` [Compound 179, (7S)-2-(((1-(1-(3,5-difluorophenyl)piperidin-4-yl)-1H-pyrazol-4-yl)methyl)amino)-4,7,8-trimethyl-7,8-dihydropteridin-6(5H)-one], the negative logarithm of the IC50 (pIC50) is above 6.52.

For `Cc1nc(NCc2cnn(Cc3ccnc(F)c3)c2)nc2c1NC(=O)[C@H](C)N2C` [Compound 180, (7S)-2-(((1-((2-fluoropyridin-4-yl)methyl)-1H-pyrazol-4-yl)methyl)amino)-4,7,8-trimethyl-7,8-dihydropteridin-6(5H)-one], the negative logarithm of the IC50 (pIC50) is above 6.52.

On to `Cc1nc(NCc2cnn(Cc3ccc4c(c3)OCO4)c2)nc2c1NC(=O)[C@H](C)N2C` [Compound 181, (7S)-2-(((1-(benzo[d][1,3]dioxol-5-ylmethyl)-1H-pyrazol-4-yl)methyl)amino)-4,7,8-trimethyl-7,8-dihydropteridin-6(5H)-one], for which the pIC50 was above 6.52.
